Assay results from US20110281951A1, “Compositions and methods for treating amyloidosis” (priority 1999, published 2011).

Columns and labels:
Assay type in all cases: biochemical
[1] = biological target: T1, IAPP (Homo sapiens, UniProt P10997); test: Thioflavine T spectroscopy, rate of amyloid fibril formation; settings: ThT 62.5 μM; excitation 440 nm, emission 482 nm
T1 sequence (P10997 34-70 limits assumed): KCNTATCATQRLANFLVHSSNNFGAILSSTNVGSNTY
Procedure: Detection of ThT fluorescence can be used as a sensitive assay for amyloid fibril formation under different conditions. This assay has been used in experiments to determine the effects of compounds of the invention on amyloid fibril formation.
Human IAPP was dissolved in 40% trifluoroethanol and freeze-dried into conveniently-sized aliquots. IAPP was prepared immediately before the measurements by dissolving in 40% 1,1,1,3,3,3-hexafluoro-2-propanol (HFIP) in water to maintain the peptide in alpha helical conformation and soluble. A stock solution of ThT (2.5 mM) was prepared, 7.9 mg in 10 mL Tris-HCl pH 7.0 and filtered (0.22 μm). Solutions were kept in the dark until use. Fluorescence was examined at 440 nm excitation (slit 5 nm), and emission at 482 nm (slit 10 nm) with stirring. […] of ThT stock (final concentration 62.5 μM) was added to peptide sample and made up to 1 mL in the cuvette. The sample was stirred for 5 min. before taking a reading. Measurements were made at an initial time point (5 min. from sample preparation), at intervals over the next 4-6 h and after overnight incubation at room temperature.

[2] = biological target: T1, IAPP; test: Circular dichroism analysis of IAPP-associated fibril formation (Example 7); design: add 10 μL of 10 mg/mL IAPP stock solution (final 100 ng peptide); settings: for Conformation at 24 h / CD at 24 h / Conformation at 48 h / CD at 48 h / Conformation at T0: molar ratio 1:5 peptide:compound; for CD at 24 h / CD at 48 h: more positive = less β-sheet; for Activity (change in ellipticity at 218 nm): molar ratio 1:10 peptide:compound
Procedure: Circular dichroism analysis was conducted to confirm the activity of certain therapeutic compounds in preventing or inhibiting IAPP-associated fibril formation in accordance with the present disclosure by determining the presence or absence of […] conformation.
Instrument: JASCO J-715 Spectropolarimeter
Cell cuvette: Hellma quartz (QS) with 1.0 mm pathlength
Wavelength interval: 250 nm-190 nm
Scanning speed: 20 nm/min
The assay, a co-incubation procedure, examines the ability of a compound or substance to inhibit the assembly of amyloid fibrils, e.g., to test for the presence of the amyloidotic β-sheet conformation in the presence of soluble IAPP. Samples are run in the presence and absence (i.e., water alone) of buffering agent, which is done to determine if competitive effects are seen with the ionic buffer (usually phosphate).
Add components used at a molar ratio of 1:10 [ peptide:compound]; add 10 μL of 10 mg/mL IAPP stock solution (final […] peptide) to the aqueous solution containing compound to a final volume of 400 μL. The pH of the final assay solution is measured to ensure there is no fluctuation and the spectrum is accumulated using the parameters as shown above.
Add desired amount of compound to achieve a 1:10 molar ratio in 10 mM phosphate buffer, pH 7. Add 10 μL of 10 mg/mL IAPP stock solution (final peptide 100 μg) to the phosphate buffered solution containing the compound and bring to a final volume of 400 μL. The pH of the final assay solution is measured to ensure there is no fluctuation and the spectrum is accumulated using the parameters as shown above.
In both assays, a control sample is run with each test group. This control contains peptide only in water or buffer at a similar final volume of 400 μl. Spectra for the control are collected initially (first run) and at the end of the test (final run) to ensure that the peptide has not undergone extensive aggregation during the course of the assay. Spectra for the controls are used to compare with the measurements obtained with the treated samples.
Make fresh 1 mg/mL stock solution of IAPP in 10 mM phosphate buffer, pH 7. Add desired amount of compound to achieve a 1:10 molar ratio in 10 mM phosphate buffer, pH 7. Incubate for 3 days at room temperature. Make up to final volume of 400 μL with 10 mM phosphate buffer, pH 7. The pH of the final assay solution is measured to ensure there is no fluctuation and the spectrum is accumulated using the parameters as shown above.
A similar control is run for comparative purposes.
Plots of the spectra (control and treated) are individually assembled and the changes in ellipticity at 218 nm are examined. This minimum is directly correlated with the amount of β-sheet present in the sample. Changes in either a positive or negative direction are noted and a relative value (“active” or “not active”) assigned to the compound as a measure of activity. In a subsequent experiment with the compounds at a molar ratio of 1:5 [ peptide:compound], the degree of randomness was noted, an indication of the ability of the compounds to prevent amyloid aggregation. A more positive number indicates less β-sheet formation. The ability of a compound to prevent β-sheet formation for at least 24 h is important, as the non-aggregated amyloid fibrils will be excreted in the soluble form. In the control noted below, the decrease in CD (mdegs) may indicate that some of the peptide is aggregating under these conditions.

[3] = biological target: T2, Aβ(1-40) (Homo sapiens, UniProt P05067); test: Circular dichroism analysis, pre-incubation assay, β-sheet at 218 nm; settings: CD 218 nm, 0.02M Tris pH 7.4
T2 construct: Prepare a fresh 40 μm solution of Aβ(1-40) in 0.02M Tris, pH 7.4; made in house; host or cells: chemical synthesis (FMOC), HPLC purified
Procedure: The assay is conducted as follows:
Instrument: JASCO J-715 Spectropolarimeter.
Cell/cuvette: Hellma quartz (QS) with 1.0 mm pathlength Room temperature. Wavelength interval: 250 nm-190 nm.
Band width: 1.0 nm Response time: 1 sec Scanning speed: 20 nm/min Number of accumulations/spectrum: 5
1. Prepare a fresh 40 μm solution of Aβ(1-40) in 0.02M Tris, pH 7.4.
2. Prepare a 1 mM solution of test compounds in 0.02M Tris, pH 7.4.
3. Combine equal volumes of the Aβ(1-40) and test compound solutions.
4. Incubate the mixtures for 19 h.
5. Take the CD spectrum using the parameters above.
6. Return the mixtures to the incubator and incubate to 43 h.
7. Take the CD spectrum using the parameters above. • Inhibition of Aβ40 assembly/aggregation is determined by comparing the amount of b-sheet structure) appearing at lambda=218 nm) obtained in control and in treated sample at each timepoint.

[4] = biological target: T3, Aβ42 peptide (Homo sapiens, UniProt P05067); test: ELISA solubility assay (Aβ fibril formation); settings: 1:10 peptide:compound, overnight at room temperature, 10 mM phosphate buffer
T3 construct: Stock solution of Aβ42 or Aβ40 peptide at 5 mg/ml in distilled water, pH 7; made in house; host or cells: chemical synthesis (FMOC), HPLC purified
Procedure: The assay was conducted as follows. Stock solution of Aβ42 peptide at 5 mg/ml in distilled water, pH 7, and stock solutions of each test compound at 1 mg/ml in distilled water, pH 7 were prepared. • 1. A 10 μg sample of peptide was mixed with compound at a molar ratio of 1:10 [ peptide:compound] in 500 μl of 10 mM phosphate buffer. Control samples contained peptide only. • 2. The mixture was incubated overnight at room temperature without agitation. • 3. The incubated mixture was centrifuged at 14,000 rpm (Eppendorf microfuge) for 5 minutes to separate the soluble peptide. • 4. 400 μl aliquots of supernatant were removed for ELISA assay.
ELISA • 1. 100 μl of prepared samples were coated in 96 wells NUNC microplates (each sample tested in triplicate) • 2. The plate was incubated at 37° C. for 3 hours, then at 4° C. overnight. • 3. The wells were washed twice with 0.05% Tween 20 in phosphate buffered saline. • 4. 250 μl of 3% skim milk powder in PBS was used to block non-specific binding to the wells (at 37° C. for 1.5 hours) • 5. The wells were washed with 0.05% Tween 20/PBS twice. • 6. A 100 μl aliquot of diluted (final dilution 1:100 in PBS) mouse monoclonal anti-Aβ antibody (purchased from DAKO recognizing the N-terminal residues 1-10) was added to each well. The antibody was then incubated at 37 C for 2 Hours. • 7. The wells were washed with 0.05% Tween 20/PBS six times (5 min/wash). • 8. Visualization was performed using 100 μl of diluted goat anti-mouse IgG (H^+ L) conjugated with alkaline phosphatase (purchased from BioRad) was added to each well. The plate was incubated at 37° C. for 1 hour. • 9. The wells were washed with 0.05% Tween 20/PBS six times (5 min/wash). • 10. The color reaction was developed using 100 μl of alkaline phosphatase substrate (purchased from BioRad) which was added to each well. • 11. The relative amounts of Aβ were obtained by measuring the OD of the sample at 405 nm using a standard ELISA plate reader.
Compounds were characterized as “active” if 40-50% of Aβ42 remained in the supernatant.

T2 sequence (P05067 672-711 limits assumed): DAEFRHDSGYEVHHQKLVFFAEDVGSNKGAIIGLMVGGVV
T3 sequence (P05067 672-713 limits assumed): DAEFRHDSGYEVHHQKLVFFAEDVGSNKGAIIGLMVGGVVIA

`Cl.c1ccc2c(c1)CCNC2` [LVIX, 1,2,3,4-tetrahydroisoquinoline, hydrochloride] was tested, and the “IAPP-associated fibril assembly (ThT fluorescence)” value (“IAPP-associated fibril assembly” below) [1] was “inhibit or prevent IAPP-associated fibril assembly”, the “Conformation at 24 h” value [2] was “β” and the “CD at 24 h” value [2] was “(−1.5) mdegs”. The “Conformation at 48 h” value [2] was “β”, the “CD at 48 h” value [2] was −1.3 mdegs and the “Conformation at T0” value [2] was “Random”. For the same compound, the “Activity (change in ellipticity at 218 nm)” value [2] was “Active”.
In the case of `O=S(=O)(O)CCCNCCCO` [LVX, 3-(3-hydroxy-1-propyl)amino-1-propanesulfonic acid], the “IAPP-associated fibril assembly” value [1] is reported as “inhibit or prevent IAPP-associated fibril assembly”, the “Conformation at 24 h” value [2] is reported as “Random” and the “Conformation at 48 h” value [2] is reported as “β”. For the same compound, the “CD at 48 h” value [2] was −1.7 mdegs and the “Conformation at T0” value [2] was “Random”.
In the case of `O=S(=O)(O)NC1CCCCC1` [LVXI, cyclohexylsulfamic acid], the “IAPP-associated fibril assembly” value [1] is reported as “inhibit or prevent IAPP-associated fibril assembly”, the “Conformation at 24 h” value [2] is reported as “β” and the “CD at 24 h” value [2] is reported as “(−1.1) mdegs”. For the same compound, the “Conformation at 48 h” value [2] was “β”, the “CD at 48 h” value [2] was −0.8 mdegs and the “Conformation at T0” value [2] was “Random”. The “Activity (change in ellipticity at 218 nm)” value [2] was “Active”.
In the case of `N[C@@H](COP(=O)(O)O)C(=O)O` [LVXII, O-phospho-L-serine], the “IAPP-associated fibril assembly” value [1] is reported as “inhibit or prevent IAPP-associated fibril assembly”, the “Conformation at 24 h” value [2] is reported as “Random” and the “Conformation at 48 h” value [2] is reported as “β”. For the same compound, the “CD at 48 h” value [2] was −2.0 mdegs and the “Conformation at T0” value [2] was “Random”.
For `COc1ccc(S(=O)(=O)O)c2cccnc12` [LVXIV, 8-methoxyquinoline-5-sulfonic acid], the “IAPP-associated fibril assembly” value [1] was “inhibit or prevent IAPP-associated fibril assembly”, the “Conformation at 24 h” value [2] was “β” and the “CD at 24 h” value [2] was “(−1.3) mdegs”. The “Conformation at 48 h” value [2] was “β”, the “CD at 48 h” value [2] was −0.8 mdegs and the “Conformation at T0” value [2] was “Random”.
For `O=S(=O)(O)CCCN1CC=C(c2ccccc2)CC1` [LVXV, 4-Phenyl-1-(3′-sulfopropyl)-1,2,3,6-tetrahydropyridine], the “relative inhibition compared to Aβ alone, incubation time 0 h” value [3] was “+ (+: 0-25%)”, the “relative inhibition compared to Aβ alone, incubation time 19 h” value [3] was “++++ (++++: 75-100%)” and the “relative inhibition compared to Aβ alone, incubation time 43 h” value [3] was “++ (++: 25-50%)”. For the same compound, the “IAPP-associated fibril assembly” value [1] was “inhibit or prevent IAPP-associated fibril assembly”, the “Conformation at 24 h” value [2] was “Random” and the “Conformation at 48 h” value [2] was “β”. The “CD at 48 h” value [2] was −1.8 mdegs and the “Conformation at T0” value [2] was “Random”.
In the case of `NCC(O)CS(=O)(=O)O` (centres unmarked) [LVXVI, 3-amino-2-hydroxy-1-propanesulfonic acid], the “relative inhibition compared to Aβ alone, incubation time 0 h” value [3] is reported as “+ (+: 0-25%)”, the “relative inhibition compared to Aβ alone, incubation time 19 h” value [3] is reported as “+++ (+++: 50-75%)” and the “relative inhibition compared to Aβ alone, incubation time 43 h” value [3] is reported as “++ (++: 25-50%)”. The “IAPP-associated fibril assembly” value [1] was “inhibit or prevent IAPP-associated fibril assembly”.
`CN(C)CCCS(=O)(=O)O` [LVXVII, 3-dimethylamino-1-propanesulfonic acid] was tested, and the “IAPP-associated fibril assembly” value [1] was “inhibit or prevent IAPP-associated fibril assembly”, the “Conformation at 24 h” value [2] was “β” and the “CD at 24 h” value [2] was “(−1.7) mdegs”. The “Conformation at 48 h” value [2] was “β”, the “CD at 48 h” value [2] was −1.5 mdegs and the “Conformation at T0” value [2] was “Random”.
With `C=CC(=O)NC(C)(C)CS(=O)(=O)O` [XXI, 2-acrylamido-2-methyl-1-propanesulfonic acid] the “Aβ42 remaining in the supernatant (activity class)” value [4] was “Active”.
In the case of `CC12CC3CC(C)(C1)CC(NCCCS(=O)(=O)O)(C3)C2` [XXIV, 3-[(−3,5-dimethyl-1-adamantyl)-amino]-1-propanesulfonic acid], the “Aβ42 remaining in the supernatant (activity class)” value [4] is reported as “Active”.
